In the experiment the test system is leukocyte migration into the CSF, pneumococcal meningitis. Kind of experiment: Rabbit model for meningitis: leukocyte migration into CSF. The format is in vivo, New Zealand white rabbits. Conditions: for mean leukocyte concentration/μl CSF / mean leukocyte density, cells/μl CSF: 7 hours after challenge; for leukocyte migration into the CSF (in words): 0.1 μM (10^-1 μM) i.v.; for leukocyte migration into CSF (in words): 10^-3 μM; for reduction of CSF leukocytosis: intravenous injection; for mean leukocyte density, cells/μl CSF: 1 ml of 1 μM peptide i.v. The text has this: FIG. 20A and B, is a graphical representation of the anti-inflammatory activity of FHA, and FHA- and factor X-derived peptides in experimental bacterial meningitis. FIG. 20 A: FHA .largecircle.; Control .quadrature.. FIG. 20B: FHA peptide Ia .largecircle.; FHA peptide II .box-solid.; Factor X peptide II .tangle-solidup.; scrambled FHA peptide II .circle-solid..
FIG. 21 is a graphical representation of the effect of concentration of peptide on inhibition of leukocyte migration into the CSF. FHA peptide Ia .largecircle., FHA peptide II .box-solid.; Factor X peptide II .tangle-solidup.(n≥4 per group). Two animals received intravenous injections of 10^-1 μM, 2×10^-2 μM or 2×10^-3 μM FHA (.circle-solid.). Values are means±standarddeviations of leukocyte densities at 7 hours after bacterial challenge. The horizontal lines indicate the mean and standard deviation of CSF leukocyte density in 10 control animals which received phosphate buffered saline.
FIG. 22 is a scattergram representation of the effect of variation of the FHA peptide II structure on efficacy of inhibition,of meningeal inflammation. Values are leukocyte densities at 7 hours for individual rabbits. The horizontal lines indicate the mean and standard deviation of CSF leukocyte density in 10 control animals which received phosphate buffered saline.
FIG. 23 is a scattergram representation of the ability of acetyl/amide FHA peptide II to inhibit accumulation of leukocytes in the CSF. Two groups of 10 animals were challenged with pneumococci. One hour later, the animals received an intravenous injection of 10 nmoles of the acetyl/amide peptide (8.2 μg) or phosphate buffered saline. Leukocyte density in CSF was determined 6 hours after pneumococcal challenge.
FIG. 28 is a graphical representation of the effect of FHA peptides on pneumococci induced leukocyte migration into the CSF during pneumococcal meningitis. Data represent mean±standard deviation of leukocyte concentration/μl CSF of at least 4 animals per group. Time is hours after pneumococcal challenge. FHA peptide Ca (.quadrature.); FHA peptide Cb (.largecircle.); FHA peptide Cd (.tangle-solidup.); Control (.diamond-solid.);
FIG. 29 is a graphical representation of a comparison of anti-inflammatory activity of FHA and FHA peptides in experimental meningitis. FHA peptide Ca (.quadrature.); FHA peptide Cb (.largecircle.), ≥ four animals/group; FHA (.tangle-solidup.), two animals/group. Values are means ±standard deviations of leukocyte concentrations/μl CSF at 7 hours after bacterial challenge. The horizontal lines indicate the mean±standard deviation of leukocyte concentrations in 10 control animals which received phosphate buffered saline.
The rabbit model was performed according to an established protocol. Specific pathogen free, New Zealand white rabbits (2 kg; Hare Marland, Nutley, N.J.) were anesthetized with valium (2.5 mg/kg, subcutaneously, Hoffman-LaRoche, Nutley, N.J.), ketamine (35 mg/kg, intra-muscularly, Aveco, Fort Dodge, Iowa) and xylazine (5 mg/kg, intramuscularly, Miles Laboratories, Shawnee, Kans.) and a helmet of dental acrylic was affixed to the calvarium. Twenty four hours later, the rabbits were anesthetized with ethyl carbamate (1.75 g/kg; Aldrich Chemical Co., Milwaukee, Wis.) and pentobarbital (15 mg/kg; Abbott Laboratories, Abbott Park, Ill.) and placed in a stereotaxic frame. A spinal needle was introduced into the cisterna magna and 300 μl of CSF was withdrawn. The animals were challenged intracisternally with 10^8 heat killed, unencapsulated pneumococcus strain R6 introduced in 200 μl of saline (time 0). One hour later, animals were treated with peptides dissolved in 1 ml of saline by intravenous injection into the right marginal ear vein. The concentration of FHA was 0.1 μM and that of the FHA Ia, Factor X II, and scrambled FHA II peptides was 10 μM. For the acetyl-FHA II, acetyl/amide-FHA II, dimer of FHA II and trimer of FHA II peptides, the concentration was 10^-3 μM. […]

Entries after “also recorded” stand apart in the source; their conditions may differ.

Take Ac-ETKEVDG-NH2 [Acetyl/Amide-FHA II]: the “leukocyte migration into the CSF” value (10 nmoles i.v., 6 hours post-pneumococcal challenge, n=10) is 3011±684 cells/μl.
In the case of “DEETVK [scrambled FHA II, reference compound]”, for the setting “peptides 10 μM”, the “CSF leukocytosis (in words)” value is on record as “ineffective”. In addition, the “mean leukocyte concentration/μl CSF” value (peptides 10 μM i.v.) is given as 6431±1380 /μl CSF.
As to ETKEVDG [FHA II], the “leukocyte migration into CSF (in words)” value is given as “ineffective” and the “reduction of CSF leukocytosis” value is over 60%. Further, where the note is “listed as FHA peptide II”, the “leukocyte migration into the CSF (in words)” value was “statistically significantly different from control at p<0.02; also recorded: more potent anti-inflammatory activity than the corresponding Factor X peptide II”. Further, the “mean leukocyte concentration/μl CSF” value (peptides 10 μM i.v.) was 2645 ±1412 /μl CSF.
As to GTLLLRNDALTENGTVTISA [FHA Cd], the “leukocyte recruitment into the CSF (in words)” value (1 μM peptide) was “no effect on the leukocyte recruitment into the CSF”.
Take GYDTKQEDG [Factor X II]: the “reduction of CSF leukocytosis” value is over 60%. Further, the “mean leukocyte concentration/μl CSF” value (peptides 10 μM i.v.) is on record as 1622±521 /μl CSF.
On the same counts, the results for “LGYQAK (UniProt P12255 1979-1984, looked up, fragment) [FHA Ia]” are over 60% and 1640±1210 /μl CSF.
For the substance RADPHQGVLAQGDIIMDAKG [FHA Cb], the “leukocyte migration into the CSF (in words)” value was “ineffective at this dose” and the “mean leukocyte density, cells/μl CSF” value is listed as 2788±1022 cells/μl CSF.
In the same order, the values of RGDPHQGVLAQGDIIMDAKG [FHA Ca] are “still significantly reduced leukocyte migration into the CSF” and 2137±1498 cells/μl CSF.
In the case of “native FHA: Filamentous hemagglutinin, 220kD surface associated protein of Bordetella pertussis (List Biologicals)”, the “leukocyte migration into CSF (in words)” value is “ineffective” and the “reduction of CSF leukocytosis” value is given as over 60%. Moreover, the “leukocyte migration into the CSF (in words)” value (listed as FHA) is “statistically significantly different from control at p<0.05; also recorded: more potent anti-inflammatory activity than the corresponding Factor X peptide II”. Besides, the “mean leukocyte concentration/μl CSF” value (FHA 25 μg, 0.1 μM i.v.) is 2096±450 /μl CSF.

The record behind these values is patent publication US5792457A, “Antibody recognizing endothelial cell ligand for leukocyte CR3” (priority 1995, dated 1998).
